Key:
[1] = In vitro metabolic stability, human liver microsomes; format: in vitro ADME; settings: CLint expressed as mL/min/g liver
Protocol: The objective of this study was to determine metabolic stability of test items in rat and human liver microsomes. Verapamil and dextromethorphan were used as positive controls for microsomal incubation.
Incubation medium was prepared by combining 11.2 mL of potassium phosphate monobasic and 38.8 mL of potassium phosphate dibasic, diluted to 1 L with water. Cryopreserved microsomes were thawed and kept on ice until use. Microsomes were then diluted in incubation to a protein concentration of 0.56 mg/mL. […]
NADPH regenerating system solution was prepared by dissolving 1.7 mg of NADP, 7.8 mg of G6P and 6 units of G6P-Dehydrogenase in 1 mL of 2% sodium bicarbonate solution (prepared by dissolving 20 g of NaHCO3 in 1 L of water).
Test compounds were separately dissolved in DMF to obtain 10 mM stock solutions that were further diluted in water/acetonitrile 50/50 (v/v) to obtain the corresponding 50 μM working solutions. Verapamil and dextromethorphan were dissolved in DMF in order to obtain a 10 mM verapamil solution and 10 mM dextromethorphan solution. These solutions were then diluted in the incubation medium in order to obtain a 50 μM verapamil working solution and a 50 μM dextromethorphan working solution.
800 μL-aliquots of NADPH regenerating system were pre-warmed at 37° C. for 5 minutes. 5 μL of 50 µM test compounds, verapamil or dextromethorphan were added to 445 μL of the 0.56 mg/mL microsomes solution and the incubation mixture was pre-warmed in a 96 deep well 2 mL plate (incubation plate) at 37° C. for 5 minutes. The incubation reactions were initiated by adding 50 μL of pre-warmed NADPH regenerating system to the incubation mixtures. 50 μL aliquots were taken from incubation mixtures at: 0, 3, 6, 9, 15, and 30 minutes and the reactions were stopped by adding 100 μL of aceronitrile with the corresponding internal standard. Samples were then diluted with 120 μL of water (final organic solvent percentage at 37%) and centrifuged at 3000 rpm for 10 minutes, prior the LC-MS/MS analysis.
Metabolic stability was calculated from the peak area ratio of the remaining test compound with internal standard versus time. The intrinsic clearance (CLint) was determined from the first order elimination constant k (min^−1) (obtained from GraphPad by plotting the natural logarithm of the peak area ratio of the remaining test item with internal standard versus time), using the actual volume of the incubation V (mL), the amount of hepatocytes in the incubation M (million cells) and the hepatocellularity number per a liver Hn (120 for human).

[2] = Determination of blood and brain tissue binding (equilibrium dialysis); format: in vitro ADME, Sprague Dawley rat; settings: Sprague Dawley, 5 h at 37° C.; for fraction unbound at 5 h, 5 micromolar: 1:2 (w/v) in artificial CSF, rat brain homogenate, read-out: % FU Brain; for fraction unbound at 5 h, 0.5 micromolar: whole blood diluted 1:1 (v/v) with isotonic phosphate buffer, rat whole blood, read-out: % FU Blood
Protocol: Sprague Dawley rat whole blood, collected on the week of the experiment using K3-EDTA as an anti-coagulant, is diluted with isotonic phosphate buffer 1:1 (v/v). Sprague Dawley rat whole brain, stored frozen at −20° C., is thawed and homogenised in artificial cerebrospinal fluid (CSF) 1:2 (w/v).
An appropriate amount of test compound is dissolved in DMSO to give a 10 millimolar solution. Further dilutions, to obtain a 166.7 micromolar working solution are then prepared using 50% acetonitrile in MilliQ water. This working solution is used to spike the blood to obtain a final concentration of 0.5 micromolar in whole blood. Similarly, the working solution is used to spike brain samples to obtain a final concentration of 5 micromolar in whole brain. From these spiked blood and brain preparations, control samples (n=3), are immediately extracted and used to calculate the initial recovery of the test items.
150 microL of compound-free buffer (isotonic phosphate buffer for blood or artificial CSF buffer for brain) is dispensed in one half-well and 150 microL of spiked matrix (blood or brain) is loaded in the other half-well, with the two halves separated by a semi-permeable membrane. After an equilibration period of 5 h at 37° C., 50 microL of dialysed matrix (blood or brain) is added to 50 microL of corresponding compound-free buffer, and vice-versa for buffer, such that the volume of buffer to matrix (blood or brain) remains the same. Samples are then extracted by protein precipitation with 300 microL of acetonitrile containing rolipram (control for positive ionization mode) or diclofenac (control for negative ionization mode) as internal standards and centrifuged for 10 min at 3000 rpm. Supernatants are collected (100 microL), diluted with 27% AcN in MilliQ water (200 microL) and then injected into an HPLC-MS/MS or UPLC-MS/MS system to determine the concentration of test compound present.
Blood and brain tissue binding are then determined using the following formulas:
where Afu=apparent fraction unbound; Buffer=analyte/internal standard ratio determined in the buffer compartment; Blood=analyte/internal standard ratio determined in the blood compartment; Brain=analyte/internal standard ratio determined in the brain compartment.
where: fucr=Fraction unbound corrected; D=matrix dilution factor (D=2 for blood and D=3 for brain). then: […]

[3] = Determination of in vivo pharmacokinetic parameters (blood and brain concentrations); settings: male, rat
Protocol: Adult male rats (Charles River, Italy) are dosed with test compound orally at 1 mg/kg (5 ml/kg, in 5% v/v DMSO, 0.5% w/v HPMC in water) and intravenously at 0.5 mg/kg (2 ml/kg, in 5% v/v DMSO 40% w/v PEG400 in saline). After oral administration, blood samples are collected under deep Isofluorane anesthesia from the portal vein and heart of each rat (1 rat per time point). After intravenous administration, serial blood samples are collected from the lateral tail vein of each rat. Blood and brain samples are collected at a single timepoint of 0.5 h after dose administration for these animals. In all cases, blood samples are collected into potassium EDTA tubes.
A further group of rats (n=1 per test compound) receive a single intravenous administration of the PgP transport inhibitor, Elacridar (3 mg/kg) shortly before the oral administration of the test compound at 1 mg/kg, as above.
Blood and brain samples can be assayed for test compound concentration using a method based on protein precipitation with acetonitrile followed by HPLC/MS-MS analysis with an optimized analytical method.
The concentrations of test compound in blood (expressed as ng/ml) and brain (expressed as ng/g) at the different time points following either oral or intravenous dosing are analysed using a non-compartmental pharmacokinetic model using WinNonLin Professional version 4.1. The following parameters are derived:
Intravenous dosing: Maximum concentration over time (Cmax), integrated concentration over time (AUC), clearance (Clb), volume of distribution (Vss), half-life (t1/2) and Brain/Heart Blood conc @0.5 hr.
Oral dosing: Cmax, time of maximum concentration (Tmax), AUC, bioavailability (F %), fraction absorbed (Fa %), blood to brain ratio (AUC B/B), and Fold-change in AUC B/B in the presence of Elacridar.

Cc1ccc(Oc2ccc(-n3c(=O)[nH]c4cccnc43)cn2)cc1OC(F)(F)F [Example 4, 3-[6-[4-methyl-3-(trifluoromethoxy)phenoxy]-3-pyridyl]-1H-imidazo[4,5-b]pyridin-2-one]
Cli human [1]: 0.7 mL/min/g | fraction unbound at 5 h, 5 micromolar [2]: 0.003 | fraction unbound at 5 h, 0.5 micromolar [2]: 0.002

O=c1[nH]c2cccnc2n1-c1cnc(Oc2cccc(OC(F)(F)F)c2)nc1 [Example 17, 3-[2-[3-(trifluoromethoxy)phenoxy]pyrimidin-5-yl]-1H-imidazo[4,5-b]pyridin-2-one]
Cli human [1]: <0.5 mL/min/g | fraction unbound at 5 h, 5 micromolar [2]: 0.016 | fraction unbound at 5 h, 0.5 micromolar [2]: 0.016 | Kp ([3]; brain and blood, oral dosing 1 mg/kg, read-out: AUC B/B (brain/blood) ratio): 0.45 | Kp at 0.5 h ([3]; brain and heart blood, intravenous, 0.5 mg/kg, 0.5 h after dose administration, read-out: Brain/Heart Blood conc @0.5 hr): 0.76

Cc1ccc(Oc2ncc(-n3c(=O)[nH]c4cccnc43)cn2)cc1OC(F)(F)F [Example 32, 3-[2-[4-methyl-3-(trifluoromethoxy)phenoxy]pyrimidin-5-yl]-1H-imidazo[4,5-b]pyridin-2-one]
Cli human [1]: 0.8 mL/min/g | fraction unbound at 5 h, 5 micromolar [2]: 0.006 | fraction unbound at 5 h, 0.5 micromolar [2]: 0.01

Reference: patent US20240327406A1, “POTASSIUM CHANNEL MODULATORS” (Autifony Therapeutics Limited, priority 2021, published 2024)
